Assay: Cyclic loading test of UHMWPE pins, release of beta-carotene
Format: physicochemical
Details: pins soaked in 1.0 wt. % beta-carotene in squalane at 90° C. for 24 hours; peak load about 330 Newtons, 1.66 Hz, bovine calf serum, 37° C.
Description: UHMWPE (GUR 1050) is irradiated with gamma radiation (50 KGy or 5 Mrad) and melt annealed to quench free radicals. An AMTI Ortho-POD Wear Test Machine is used for the testing the UHMWPE cylindrical pin samples. The samples are ⅜ inch in diameter and 0.7 inch long, and are soaked in a 1.0 wt. % solution of beta-carotene in squalane at 90° C. for 24 hours. The samples are bright orange red in color, indicating the presence of beta-carotene.
A Paul loading curve with a peak load of about 330 Newtons is applied to the pins. The cycling frequency is 1.66 Hz. A 90% bovine calf serum, diluted with EDTA and sodium azide dissolved in reverse osmosis water, is used as lubricant. The temperature of the lubricant is 37° C.

release of beneficial agent from UHMWPE pins (colour change bright orange red to light orange): released, activated by the load
Compound: CC1=C(/C=C/C(C)=C/C=C/C(C)=C/C=C/C=C(C)/C=C/C=C(C)/C=C/C2=C(C)CCCC2(C)C)C(C)(C)CCC1 [beta-carotene]

Reference: US20070077268A1, “Hydrophobic carrier modified implants for beneficial agent delivery” (DePuy Products, Inc., priority 2005, published 2007)
